Reference: patent US20090274764A1, “Hollow Foam Beads for Treatment of Glioblastoma” (priority 2008, published 2009)
Like-named read-outs stand apart in the source and are kept apart here.

Key:
[1] = system: 9L gliosarcoma
Text: 88 rats were intracranially implanted on Day 0 with 9L gliosarcoma.

[2] = system: rodent 9L glioma; assay: Inhibition of tumor proliferation, 9L cells counted after 5 days; assay type: cell-based; conditions: 120 h, read-out: growth inhibition
Method: The 9L gliosarcoma cell line was obtained from Dr. M. Barker at the University of California at San Francisco Brain Tumor Research Center (San Francisco, Calif., USA). The cells were maintained in tissue culture in Dulbecco's minimum essential medium with 10% fetal bovine serum, streptomycin (80.5 units/ml), penicillin (base; 80.5 units/ml), and 1% L-glutamine (all products from GIBCO laboratories, Grand Island, N.Y., USA). Cells were maintained in a humidified atmosphere of 5% CO2 at 37° C. The cells were grown to confluence, detached with 0.25% trypsin in Dulbecco's phosphate-buffered saline, and resuspended in medium.
Inhibition of tumor proliferation was tested against the rodent 9L glioma. […] The data were analyzed using the two-tailed Student's t-test.

For `CO[C@H]1C[C@@H]2CC[C@@H](C)[C@@](O)(O2)C(=O)C(=O)N2CCCC[C@H]2C(=O)O[C@H]([C@H](C)C[C@@H]2CC[C@@H](O)[C@H](OC)C2)CC(=O)[C@H](C)/C=C(\C)[C@@H](O)[C@@H](OC)C(=O)[C@H](C)C[C@H](C)/C=C/C=C/C=C/1C` [Rapamycin, rapamycin], the toxicity ([1]; rat, in vivo, ip, 2 mg/kg) was “none of the rats that received systemic injections of rapamycin showed overt signs of toxicity”, the “% Survival” value ([1]; treated Day 0, at Day 0) was 100% and the “% Survival” value ([1]; treated Day 0, at Day 12, 1st line) was 100%. The “% Survival” value ([1]; treated Day 0, at Day 12, 2nd line) was 100%, the “% Survival” value ([1]; treated Day 0, at Day 13, 1st line) was 100% and the “% Survival” value ([1]; treated Day 0, at Day 13, 2nd line) was 100%. For the same molecule, the “% Survival” value ([1]; treated Day 0, at Day 14, 1st line) was 100%, the “% Survival” value ([1]; treated Day 0, at Day 14, 2nd line) was 100% and the “% Survival” value ([1]; treated Day 0, at Day 15, 1st line) was 100%. The “% Survival” value ([1]; treated Day 0, at Day 15, 2nd line) was 100%, the “% Survival” value ([1]; treated Day 0, at Day 16, 1st line) was 100% and the “% Survival” value ([1]; treated Day 0, at Day 16, 2nd line) was 100%. The “% Survival” value ([1]; treated Day 0, at Day 17, 1st line) was 100%, the “% Survival” value ([1]; treated Day 0, at Day 17, 2nd line) was 100% and the “% Survival” value ([1]; treated Day 0, at Day 18, 1st line) was 100%. For the same molecule, the “% Survival” value ([1]; treated Day 0, at Day 18, 2nd line) was 100%, the “% Survival” value ([1]; treated Day 0, at Day 19, 1st line) was 100% and the “% Survival” value ([1]; treated Day 0, at Day 19, 2nd line) was 100%. For the same molecule, the “% Survival” value ([1]; treated Day 0, at Day 20, 1st line) was 100%, the “% Survival” value ([1]; treated Day 0, at Day 20, 2nd line) was 100% and the “% Survival” value ([1]; treated Day 0, at Day 21, 1st line) was 100%. The “% Survival” value ([1]; treated Day 0, at Day 21, 2nd line) was 100%, the “% Survival” value ([1]; treated Day 0, at Day 22, 1st line) was 100% and the “% Survival” value ([1]; treated Day 0, at Day 22, 2nd line) was 100%. The “% Survival” value ([1]; treated Day 0, at Day 23, 1st line) was 100%, the “% Survival” value ([1]; treated Day 0, at Day 23, 2nd line) was 100% and the “% Survival” value ([1]; treated Day 0, at Day 24, 1st line) was 100%. For the same molecule, the “% Survival” value ([1]; treated Day 0, at Day 24, 2nd line) was 100%, the “% Survival” value ([1]; treated Day 0, at Day 25, 1st line) was 100% and the “% Survival” value ([1]; treated Day 0, at Day 25, 2nd line) was 75%. The “% Survival” value ([1]; treated Day 0, at Day 26, 1st line) was 75%, the “% Survival” value ([1]; treated Day 0, at Day 26, 2nd line) was 75% and the “% Survival” value ([1]; treated Day 0, at Day 27, 1st line) was 75%. For the same molecule, the “% Survival” value ([1]; treated Day 0, at Day 27, 2nd line) was 75%, the “% Survival” value ([1]; treated Day 0, at Day 28, 1st line) was 75% and the “% Survival” value ([1]; treated Day 0, at Day 28, 2nd line) was 50%. The “% Survival” value ([1]; treated Day 0, at Day 29, 1st line) was 50%, the “% Survival” value ([1]; treated Day 0, at Day 29, 2nd line) was 50% and the “% Survival” value ([1]; treated Day 0, at Day 30, 1st line) was 50%. For the same molecule, the “% Survival” value ([1]; treated Day 0, at Day 30, 2nd line) was 37.5%, the “% Survival” value ([1]; treated Day 0, at Day 31, 1st line) was 37.5% and the “% Survival” value ([1]; treated Day 0, at Day 31, 2nd line) was 37.5%. The “% Survival” value ([1]; treated Day 0, at Day 32, 1st line) was 37.5%, the “% Survival” value ([1]; treated Day 0, at Day 32, 2nd line) was 37.5% and the “% Survival” value ([1]; treated Day 0, at Day 33, 1st line) was 37.5%. For the same molecule, the “% Survival” value ([1]; treated Day 0, at Day 33, 2nd line) was 37.5%, the “% Survival” value ([1]; treated Day 0, at Day 35, 1st line) was 37.5% and the “% Survival” value ([1]; treated Day 0, at Day 35, 2nd line) was 25%. For the same molecule, the “% Survival” value ([1]; treated Day 0, at Day 40, 1st line) was 25%, the “% Survival” value ([1]; treated Day 0, at Day 41, 2nd line) was 0% and the “% Survival” value ([1]; treated Day 5, at Day 0) was 100%. The “% Survival” value ([1]; treated Day 5, at Day 12, 1st line) was 100%, the “% Survival” value ([1]; treated Day 5, at Day 12, 2nd line) was 100% and the “% Survival” value ([1]; treated Day 5, at Day 13, 1st line) was 100%. The “% Survival” value ([1]; treated Day 5, at Day 13, 2nd line) was 100%, the “% Survival” value ([1]; treated Day 5, at Day 14, 1st line) was 100% and the “% Survival” value ([1]; treated Day 5, at Day 14, 2nd line) was 100%. For the same molecule, the “% Survival” value ([1]; treated Day 5, at Day 15, 1st line) was 100%, the “% Survival” value ([1]; treated Day 5, at Day 15, 2nd line) was 100% and the “% Survival” value ([1]; treated Day 5, at Day 16, 1st line) was 100%. The “% Survival” value ([1]; treated Day 5, at Day 16, 2nd line) was 100%, the “% Survival” value ([1]; treated Day 5, at Day 17, 1st line) was 100% and the “% Survival” value ([1]; treated Day 5, at Day 17, 2nd line) was 100%. For the same molecule, the “% Survival” value ([1]; treated Day 5, at Day 18, 1st line) was 100%, the “% Survival” value ([1]; treated Day 5, at Day 18, 2nd line) was 100% and the “% Survival” value ([1]; treated Day 5, at Day 19, 1st line) was 100%. The “% Survival” value ([1]; treated Day 5, at Day 19, 2nd line) was 100%, the “% Survival” value ([1]; treated Day 5, at Day 20, 1st line) was 100% and the “% Survival” value ([1]; treated Day 5, at Day 20, 2nd line) was 100%. For the same molecule, the “% Survival” value ([1]; treated Day 5, at Day 21, 1st line) was 100%, the “% Survival” value ([1]; treated Day 5, at Day 21, 2nd line) was 100% and the “% Survival” value ([1]; treated Day 5, at Day 22, 1st line) was 100%. The “% Survival” value ([1]; treated Day 5, at Day 22, 2nd line) was 100%, the “% Survival” value ([1]; treated Day 5, at Day 23, 1st line) was 100% and the “% Survival” value ([1]; treated Day 5, at Day 23, 2nd line) was 100%. The “% Survival” value ([1]; treated Day 5, at Day 24, 1st line) was 100%, the “% Survival” value ([1]; treated Day 5, at Day 24, 2nd line) was 100% and the “% Survival” value ([1]; treated Day 5, at Day 25, 1st line) was 100%. For the same molecule, the “% Survival” value ([1]; treated Day 5, at Day 26, 2nd line) was 75%, the “% Survival” value ([1]; treated Day 5, at Day 27, 1st line) was 75% and the “% Survival” value ([1]; treated Day 5, at Day 27, 2nd line) was 62.5%. The “% Survival” value ([1]; treated Day 5, at Day 28, 1st line) was 62.5%, the “% Survival” value ([1]; treated Day 5, at Day 28, 2nd line) was 50% and the “% Survival” value ([1]; treated Day 5, at Day 29, 1st line) was 50%. The “% Survival” value ([1]; treated Day 5, at Day 29, 2nd line) was 50%, the “% Survival” value ([1]; treated Day 5, at Day 30, 1st line) was 50% and the “% Survival” value ([1]; treated Day 5, at Day 30, 2nd line) was 50%. For the same molecule, the “% Survival” value ([1]; treated Day 5, at Day 31, 1st line) was 50%, the “% Survival” value ([1]; treated Day 5, at Day 31, 2nd line) was 50% and the “% Survival” value ([1]; treated Day 5, at Day 32, 1st line) was 50%. For the same molecule, the “% Survival” value ([1]; treated Day 5, at Day 32, 2nd line) was 37.5%, the “% Survival” value ([1]; treated Day 5, at Day 33, 1st line) was 37.5% and the “% Survival” value ([1]; treated Day 5, at Day 33, 2nd line) was 37.5%. The “% Survival” value ([1]; treated Day 5, at Day 35, 1st line) was 37.5%, the “% Survival” value ([1]; treated Day 5, at Day 35, 2nd line) was 37.5% and the “% Survival” value ([1]; treated Day 5, at Day 40, 1st line) was 37.5%. For the same molecule, the “% Survival” value ([1]; treated Day 5, at Day 40, 2nd line) was 37.5%, the “% Survival” value ([1]; treated Day 5, at Day 41, 1st line) was 37.5% and the “% Survival” value ([1]; treated Day 5, at Day 41, 2nd line) was 0%. For the same molecule, the “Statistical Significance (survival) vs Day 0-0.2%” value ([1]; treatment Day 0) was 0.4226, the “Statistical Significance (survival) vs Day 0-2.2%” value ([1]; treatment Day 0) was 0.2237 and the “Statistical Significance (survival) vs Day 0-28%” value ([1]; treatment Day 0) was 0.7869. For the same molecule, the “Statistical Significance (survival) vs Day 0-Placebo” value ([1]; treatment Day 0) was 0.0001, the “Statistical Significance (survival) vs Day 5-0.2%” value ([1]; treatment Day 0) was 0.0002 and the “Statistical Significance (survival) vs Day 5-2.2%” value ([1]; treatment Day 0) was 0.0008. For the same molecule, the “Statistical Significance (survival) vs Day 5-Placebo” value ([1]; treatment Day 0) was 0.0001, the “Statistical Significance (survival) vs Day 5-Systemic” value ([1]; treatment Day 0) was 0.5157 and the “Statistical Significance (survival) vs Day 0-0.2%” value ([1]; treatment Day 5) was 0.2137. For the same molecule, the “Statistical Significance (survival) vs Day 0-28%” value ([1]; treatment Day 5) was 0.9992, the “Statistical Significance (survival) vs Day 0-Placebo” value ([1]; treatment Day 5) was 0.0001 and the “Statistical Significance (survival) vs Day 0-Systemic” value ([1]; treatment Day 5) was 0.5157. For the same molecule, the “Statistical Significance (survival) vs Day 5-0.2%” value ([1]; treatment Day 5) was 0.0001, the “Statistical Significance (survival) vs Day 5-2.2%” value ([1]; treatment Day 5) was 0.003 and the “Statistical Significance (survival) vs Day 5-28%” value ([1]; treatment Day 5) was 0.222. The “Statistical Significance (survival) vs Day 5-Placebo” value ([1]; treatment Day 5) was 0.0001, the “Mean Survival” value ([1]; treatment initiated 5 days after tumor implantation) was 29 days and the “Mean Survival” value ([1]; treatment initiated concurrently with tumor implantation (Day 0)) was 28 days. It also gave an inhibition at 0.01 µg/mL ([2]; 0.01 microgram/ml) of 34% and an inhibition at 10 µg/mL ([2]; 10 microgram/ml) of 62%.
